Consider 27 molecules from US9598423B2 (BRISTOL-MYERS SQUIBB COMPANY, priority 2013, dated 2017).

One test addresses CK1ε (Homo sapiens (Human), UniProt P49674). As to the kind of experiment: CK1ε kinase assay (Caliper LABCHIP electrophoretic separation of fluoresceinated peptide substrate and product). The test is classed as biochemical. The conditions noted are these: 200 pM CK1ε, 50 μM ATP, 1.5 μM peptide substrate, 22 hours at room temperature; read-out: CK1ε (IC50). The protocol:
(§1) CK1ε and CK1δ Kinase Assays
(§2) The kinase assay was performed in V-bottom 384-well plates. […] The reaction was incubated at room temperature for 22 hours and terminated by adding 45 μl of 35 mM EDTA to each sample. The reaction mixture was analyzed on the Caliper LABCHIP®3000 (Caliper, Hopkinton, Mass.) by electrophoretic separation of the unphosphorylated substrate and phosphorylated product. […] Compounds were dissolved at 10 mM in dimethylsulfoxide (DMSO) and evaluated at eleven concentrations. IC50 values were derived by non-linear regression analysis.

For another test, the target named is CK1δ (Homo sapiens (Human), UniProt P48730). As to the kind of experiment: CK1δ kinase assay (Caliper LABCHIP electrophoretic separation of fluoresceinated peptide substrate and product). The test is classed as biochemical. Particulars: 200 pM CK1δ, 50 μM ATP, 1.5 μM peptide substrate, 22 hours at room temperature; read-out: CK1δ (IC50). The protocol:
as §1, §2

What is called IC50 is the concentration needed to halve the response being measured.

Structures are written as SMILES.

Sequence of CK1ε (P49674 whole entry): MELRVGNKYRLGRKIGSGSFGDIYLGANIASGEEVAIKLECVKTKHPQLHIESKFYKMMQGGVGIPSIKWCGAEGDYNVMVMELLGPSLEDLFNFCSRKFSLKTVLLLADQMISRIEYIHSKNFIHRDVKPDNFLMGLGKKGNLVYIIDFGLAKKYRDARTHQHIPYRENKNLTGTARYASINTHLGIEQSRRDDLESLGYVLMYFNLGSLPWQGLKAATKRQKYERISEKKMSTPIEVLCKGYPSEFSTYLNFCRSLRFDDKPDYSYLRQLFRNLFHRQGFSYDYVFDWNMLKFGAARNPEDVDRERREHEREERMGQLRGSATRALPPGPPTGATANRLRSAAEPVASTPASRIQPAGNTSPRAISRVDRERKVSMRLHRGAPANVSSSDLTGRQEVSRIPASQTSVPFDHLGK
Sequence of CK1δ (P48730 whole entry): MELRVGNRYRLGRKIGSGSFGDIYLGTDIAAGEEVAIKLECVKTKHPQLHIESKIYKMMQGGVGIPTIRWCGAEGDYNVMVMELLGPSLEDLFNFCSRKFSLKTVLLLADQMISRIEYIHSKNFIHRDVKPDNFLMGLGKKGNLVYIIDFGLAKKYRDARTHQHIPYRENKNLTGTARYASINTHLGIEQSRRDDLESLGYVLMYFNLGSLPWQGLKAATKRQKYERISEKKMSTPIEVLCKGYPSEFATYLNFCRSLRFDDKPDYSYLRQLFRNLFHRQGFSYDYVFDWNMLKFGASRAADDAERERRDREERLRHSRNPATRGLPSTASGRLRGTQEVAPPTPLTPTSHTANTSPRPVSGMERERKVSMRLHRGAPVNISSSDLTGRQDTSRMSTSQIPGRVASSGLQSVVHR

In the case of `NC(=O)c1c(-c2cccc(F)c2)nn2c1CN(C(=O)NC13CC4CC(CC(C4)C1)C3)CC2` [Compound 22, N^5-(Adamantan-1-yl)-2-(3-fluorophenyl)-6,7-dihydropyrazolo[1,5-a]pyrazine-3,5(4H)-dicarboxamide], the IC50 at CK1ε and at CK1δ was 0.01 to 10 nM each time.
Turning to `Cc1cc(NC(=O)N2CCn3nc(-c4ccc(Cl)c(Cl)c4)c(C(N)=O)c3C2)ccc1C#N` [Compound 214, N^5-(4-Cyano-3-methylphenyl)-2-(3,4-dichlorophenyl)-6,7-dihydropyrazolo[1,5-a] pyrazine-3,5(4H)-dicarboxamide], the IC50 on CK1ε and on CK1δ was 0.01 to 10 nM each time.
With `NC(=O)c1c(-c2cccc(F)c2)nn2c1CN(C(=O)Nc1ccnnc1)CC2` [Compound 82, 2-(3-Fluorophenyl)-N^5-(pyridazin-4-yl)-6,7-dihydropyrazolo[1,5-a]pyrazine-3,5(4H)-dicarboxamide], the IC50 at CK1ε and at CK1δ was 0.01 to 10 nM each time.
As for `Cn1cc2c(F)cc(-c3nn4c(c3C(N)=O)CN(C(=O)Nc3ccc(C#N)cc3)CC4)cc2n1` [Compound 328], the IC50 on CK1ε and on CK1δ was 10 to 100 nM in each case.
As for `COc1cc(NC(=O)N2CCn3nc(-c4cccc(F)c4)c(C(N)=O)c3C2)ccc1C(F)(F)F` [Compound 78, 2-(3-Fluorophenyl)-N^5-(3-methoxy-4-(trifluoromethyl)phenyl)-6,7-dihydropyrazolo[1,5-a]pyrazine-3,5(4H)-dicarboxamide], the IC50 on CK1ε and on CK1δ was 0.01 to 10 nM each time.
On to `NC(=O)c1c(-c2ccc(F)c(F)c2)nn2c1CN(C(=O)Nc1ccc3c(c1)OC(F)(F)O3)CC2` [Compound 232, N^5-(2,2-Difluorobenzo [d][1,3]dioxol-5-yl)-2-(3,4-difluorophenyl)-6,7-dihydropyrazolo [1,5-a]pyrazine-3,5(4H)-dicarboxamide], for which the IC50 at CK1ε and on CK1δ was 0.01 to 10 nM in each case.
`Cc1ccc(-c2nn3c(c2C(N)=O)CN(C(=O)Nc2ccc4c(c2)CS(=O)(=O)C4)CC3)cc1Cl` [Compound 251, 2-(3-Chloro-4-methylphenyl)-N^5-(2,2-dioxido-1,3-dihydrobenzo[c]thiophen-5-yl)-6,7-dihydropyrazolo[1,5-a] pyrazine-3,5(4H)-dicarboxamide]: the IC50 on CK1ε and on CK1δ was 0.01 to 10 nM each time.
As for `Cc1ccc(NC(=O)N2CCn3nc(-c4ccc(F)c(Cl)c4)c(C(N)=O)c3C2)cc1C` [Compound 175, 2-(3-Chloro-4-fluorophenyl)-N^5-(3,4-dimethylphenyl)-6,7-dihydropyrazolo[1,5-a] pyrazine-3,5(4H)-dicarboxamide], the IC50 at CK1ε and on CK1δ was 0.01 to 10 nM in each case.
With `CC(=O)Nc1cccc(-c2nn3c(c2C(N)=O)CN(C(=O)Nc2ccc(C#N)cc2)CC3)c1` [Compound 288, 2-(3-Acetamidophenyl)-N^5-(4-cyanophenyl)-6,7-dihydropyrazolo[1,5-a] pyrazine-3,5(4H)-dicarboxamide], the IC50 on CK1ε and on CK1δ was 100 to 2000 nM each time.
As for `NC(=O)c1c(-c2ccc(F)c(Cl)c2)nn2c1CN(C(=O)Nc1ccc(F)c(F)c1)CC2` [Compound 183, 2-(3-Chloro-4-fluorophenyl)-N^5-(3,4-difluorophenyl)-6,7-dihydropyrazolo[1,5-a] pyrazine-3,5(4H)-dicarboxamide], the half-inhibitory concentration (IC50) at CK1ε and on CK1δ was 0.01 to 10 nM in each case.
Consider `NC(=O)c1c(-c2cc(Cl)cc(Cl)c2)nn2c1CN(C(=O)Nc1ccc(Cl)c(Cl)c1)CC2` [Compound 302, N^5-(3,4-Dichlorophenyl)-2-(3,5-dichlorophenyl)-6,7-dihydropyrazolo[1,5-a] pyrazine-3,5(4H)-dicarboxamide], for which the IC50 at CK1ε and at CK1δ was 0.01 to 10 nM each time.
Take `NC(=O)c1ccc(NC(=O)N2CCn3nc(-c4ccc(F)c(Cl)c4)c(C(N)=O)c3C2)cc1` [Compound 180, N^5-(4-Carbamoylphenyl)-2-(3-chloro-4-fluorophenyl)-6,7-dihydropyrazolo[1,5-a] pyrazine-3,5(4H)-dicarboxamide]: the IC50 at CK1ε and on CK1δ was 0.01 to 10 nM in each case.
Turning to `NC(=O)c1c(-c2cc(Cl)c(F)c(Cl)c2)nn2c1CN(C(=O)Nc1ccc(F)c(F)c1)CC2` [Compound 260, 2-(3,5-Dichloro-4-fluorophenyl)-N^5-(3,4-difluorophenyl)-6,7-dihydropyrazolo[1,5-a] pyrazine-3,5(4H)-dicarboxamide], the IC50 on CK1ε and at CK1δ was 0.01 to 10 nM each time.
For `N#Cc1ccc(NC(=O)N2CCn3nc(-c4cc(F)cc(Cl)c4)c(C(N)=O)c3C2)cc1F` [Compound 215, 2-(3-Chloro-5-fluorophenyl)-N^5-(4-cyano-3-fluorophenyl)-6,7-dihydropyrazolo[1,5-a]pyrazine-3,5(4H)-dicarboxamide], the IC50 at CK1ε and on CK1δ was 0.01 to 10 nM each time.
Regarding `CS(=O)(=O)c1cccc(-c2nn3c(c2C(N)=O)CN(C(=O)Nc2ccc(C#N)cc2)CC3)c1` [Compound 286, N^5-(4-Cyanophenyl)-2-(3-(methylsulfonyl)phenyl)-6,7-dihydropyrazolo[1,5-a] pyrazine-3,5(4H)-dicarboxamide], the IC50 on CK1ε and on CK1δ was 100 to 2000 nM each time.
In the case of `NC(=O)c1c(-c2cccc(F)c2)nn2c1CN(C(=O)Nc1ccc(-c3ccccc3)cc1)CC2` [Compound 62, N^5-([1,1′-Biphenyl]-4-yl)-2-(3-fluorophenyl)-6,7-dihydropyrazolo[1,5-a]pyrazine-3,5(4H)-dicarboxamide], the IC50 at CK1ε and at CK1δ was 0.01 to 10 nM throughout.
As to `N#Cc1cccc(NC(=O)N2CCn3nc(-c4cccc(Cl)c4)c(C(N)=O)c3C2)c1` [Compound 161, 2-(3-Chlorophenyl)-N^5-(3-cyanophenyl)-6,7-dihydropyrazolo[1,5-a] pyrazine-3,5(4H)-dicarboxamide], the IC50 at CK1ε and on CK1δ was 0.01 to 10 nM throughout.
Turning to `CCOc1cc(Cl)cc(-c2nn3c(c2C(N)=O)CN(C(=O)Nc2ccc(C#N)c(Cl)c2)CC3)c1` [Compound A61, N^5-(3-Chloro-4-cyanophenyl)-2-(3-chloro-5-ethoxyphenyl)-6,7-dihydropyrazolo[1,5-a]pyrazine-3,5(4H)-dicarboxamide], the IC50 on CK1ε and at CK1δ was 0.01 to 10 nM throughout.
As for `N#Cc1ccc(NC(=O)N2CCn3nc(-c4ccc(F)c(Cl)c4)c(C(N)=O)c3C2)cc1C1CC1` [Compound A50, 2-(3-Chloro-4-fluorophenyl)-N^5-(4-cyano-3-cyclopropylphenyl)-6,7-dihydropyrazolo[1,5-a]pyrazine-3,5(4H)-dicarboxamide], the IC50 on CK1ε and at CK1δ was 0.01 to 10 nM in each case.
Consider `NC(=O)c1c(-c2cccc(Cl)c2)nn2c1CN(C(=O)Nc1cccc(F)c1)CC2` [Compound 167, 2-(3-Chlorophenyl)-N^5-(3-fluorophenyl)-6,7-dihydropyrazolo[1,5-a] pyrazine-3,5(4H)-dicarboxamide], for which the IC50 at CK1ε and at CK1δ was 0.01 to 10 nM throughout.
Regarding `N#Cc1ccc(NC(=O)N2CCn3nc(-c4ccc(F)c(Cl)c4)c(C(=O)NC4CC4)c3C2)cc1` [Compound A65, 2-(3-Chloro-4-fluorophenyl)-N^5-(4-cyanophenyl)-N^3-cyclopropyl-6,7-dihydropyrazolo[1,5-a]pyrazine-3,5(4H)-dicarboxamide], the IC50 on CK1ε and on CK1δ was 100 to 2000 nM each time.
With `Cc1cc(-c2nn3c(c2C(N)=O)CN(C(=O)Nc2ccc4ncsc4c2)CC3)ccc1F` [Compound 241, N^5-(Benzo[d]thiazol-6-yl)-2-(4-fluoro-3-methylphenyl)-6,7-dihydropyrazolo[1,5-a] pyrazine-3,5(4H)-dicarboxamide], the IC50 on CK1ε and at CK1δ was 0.01 to 10 nM each time.
As for `CC1Cn2nc(-c3cccc(Cl)c3)c(C(N)=O)c2CN1C(=O)Nc1ccc(C#N)cc1` (single isomer, unassigned) [Compound 332, 2-(3-Chlorophenyl)-N^5-(4-cyanophenyl)-6-methyl-6,7-dihydropyrazolo[1,5-a]pyrazine-3,5(4H)-dicarboxamide], the IC50 at CK1ε and at CK1δ was 0.01 to 10 nM each time.
Take `CC(C)(C)C(=O)N1CCC(NC(=O)N2CCn3nc(-c4cccc(F)c4)c(C(N)=O)c3C2)CC1` [Compound 98, 2-(3-Fluorophenyl)-N^5-(1-pivaloylpiperidin-4-yl)-6,7-dihydropyrazolo[1,5-a]pyrazine-3,5(4H)-dicarboxamide]: the IC50 at CK1ε and on CK1δ was 0.01 to 10 nM in each case.
As to `Cc1n[nH]c2c(Cl)cc(-c3nn4c(c3C(N)=O)CN(C(=O)Nc3ccc(C#N)c(Cl)c3)CC4)cc12` [compound 321], the IC50 at CK1ε and on CK1δ was 0.01 to 10 nM each time.
`Cc1cc(NC(=O)N2CCn3nc(-c4cc(F)c5cn[nH]c5c4)c(C(N)=O)c3C2)ccc1C#N` [Compound 325, N^5-(4-Cyano-3-methylphenyl)-2-(4-fluoro-1H-indazol-6-yl)-6,7-dihydropyrazolo[1,5-a]pyrazine-3,5(4H)-dicarboxamide]: the IC50 at CK1ε and at CK1δ was 0.01 to 10 nM throughout.
Consider `NC(=O)c1c(-c2ccc(F)c(Cl)c2)nn2c1CN(C(=O)Nc1ccc(C(F)(F)F)c(Cl)c1)CC2` [Compound 176, N^5-(3-Chloro-4-(trifluoromethyl)phenyl)-2-(3-chloro-4-fluorophenyl)-6,7-dihydropyrazolo[1,5-a] pyrazine-3,5(4H)-dicarboxamide], for which the IC50 at CK1ε and on CK1δ was 0.01 to 10 nM throughout.
